Values of other authors in patent publication US9987239B1, “Pharmaceutical retinoid preparation for topical use” (Rey Ventures, LLC, priority 2017, dated 2018).

In the case of `COc1ccc(-c2ccc3cc(C(=O)O)ccc3c2)cc1C12CC3CC(CC(C3)C1)C2` [adapalene, 6-[3-(1-adamantyl)-4-methoxyphenyl] naphthalene-2-carboxylic], the “solubility of adapalene in ethyl alcohol” value (ethyl alcohol) is given as 1000 µg/mL and the “solubility of adapalene (water)” value (water) is given as 0.004 µg/mL.
